Source: patent US12643906B2, “Fused aza-heterocyclic amide compound and use thereof” (CSPC ZHONGQI PHARMACEUTICAL TECHNOLOGY (SHIJIAZHUANG) CO., …, priority 2020, dated 2026)

What was measured:
[1] = biological target: T1, TRKA(G595R) (Homo sapiens, UniProt P04629, G595R); assay: HTRF kinase inhibition assay, TRKA(G595R); format: biochemical
T1 construct: purchased signalchem
Method: (§1) The compound to be tested with a certain concentration gradient and an enzyme solution were successively added into a plate (kinase buffer (1× kinase buffer (Cisbio, Cat #62EZBFDD), pH 7.5; 5 mM MgCl2, 1 mM DTT) was added into negative control wells), and the compound plate was centrifuged at 1000 rpm for 30 seconds. The plate was sealed and incubated in a Constant Temperature Incubator at 25° C. for 30 min. A substrate solution containing TK-Sub-biotin (Cisbio, Cat #61TKOBL) and ATP (Sigma, Cat #R0441) was prepared, the substrate solution was added into a 384-well plate, and the plate was centrifuged at 1000 rpm for 30 seconds. The plate was sealed and incubated in a Constant Temperature Incubator at 25° C. for 60 min.
(§2) TK antibody and XL665 were diluted, mixed and added into the assay plate, and the plate was centrifuged at 1000 rpm for 30 seconds. The plate was sealed and incubated in a Constant Temperature incubator Incubator at 25° C. for 60 min. The assay plate was placed on an Envision reader for reading. (HTRF 665/615 ratio: signal value at 665 nm/signal value at 615 nm) Inhibition=(rationegative control well−ratiocompound well)/(rationegative control well−ratioenzyme-free control well)×100% 1.3 Data Analysis and Curve Fitting
(§3) Data were fitted in XLFit excel add-in version 5.4.0.8 to obtain IC50 values.

[2] = biological target: T2, TRKC(G696A) (Homo sapiens, UniProt Q16288, G696A); assay: HTRF kinase inhibition assay, TRKC(G696A); format: biochemical
T2 construct: purchased Bioduro
Method: as §1
TK antibody and XL665 were diluted, mixed and added into the assay plate, and the plate was centrifuged at 1000 rpm for 30 seconds. The plate was sealed and incubated in a Constant Temperature incubator Incubator at 25° C. for 60 min. The assay plate was placed on an Envision reader for reading.
as §3

[3] = system: TRK, p-TRK, p-PLCγ1, p-AKT in Ba/F3 LMNA-NTRK1-G595R tumor tissues; assay: In vivo mechanism study, western blot of tumor tissues; parameters: species or system NuNu mice; conditions: 100 mg/kg gavage, tumor taken 0.25-24 h
Method: A total of 3 mice in the control group were selected, and tumor tissues were taken and cryopreserved 4 h after the administration of the vehicle. The compound No. 4 of the present disclosure was administered to other groups at 100 mg/kg, and tumor tissues was taken at 0.25 h, 1 h, 4 h, 8 h, 12 h and 24 h for cryopreservation.
A certain mass of tumor tissue was taken and added into a corresponding volume of protein lysate (RIPA lysate (Thermo Fisher, Cat. No. 89900): protease inhibitor (cOmplete, Mini, EDTA-free, EASYpack; Roche, Cat. No. 04693159001): phosphatase inhibitor (PhosStop, EASY pack; Roche, Cat. No. 04906837001)=8:1:1), homogenized and lysed in ice bath for 30 min. The mixture was subjected to high-speed centrifugation at low temperature, and then the supernatant was taken for BCA protein quantification (procedure according to the BCA protein quantification kit (Qiagen, Cat. No. PA115-01)). Finally, after the protein concentration was adjusted to be uniform by lysate, loading buffer was added, and the mixture was boiled at 100° C. for 10 min.
4-20% of 10-well prefabricated gel was adopted; the sample loading amount was 100 μg; 140 V electrophoresis was performed for 1-1.5 h; the 300 mA wet-transfer was performed for 1.5-2 h; the membrane was blocked with 5% BSA for 2-3 h; incubating with primary antibody overnight at 4° C. […]

[4] = biological target: T3, TRKC(G623R) (Homo sapiens, UniProt Q16288, G623R); assay: HTRF kinase inhibition assay, TRKC(G623R); format: biochemical
T3 construct: purchased Bioduro
Method: as §1, §2, §3

[5] = biological target: T4, Ba/F3 ETV6-NTRK3-G696A (Homo sapiens, UniProt Q16288, G696A, cells depend on it); assay: In vitro cell proliferation inhibition (MTT); format: cell-based, murine; conditions: 72 h, read-out: IC50 Ba/F3 ETV6-NTRK3-G696A
T4 construct: fused on or other part: P41212 (Transcription factor ETV6)
Method: • Source of 6 kinds of cell lines for the test: KYinno Biotechnology (Beijing) Co., Ltd. • Cell type: murine B cells • Culture medium: RPMI-1640+10% FB S 2. Test Method
(§4) Cells in the logarithmic growth phase were harvested and counted using a […]. The cell suspension with a certain density was pipetted uniformly and seeded into a 96-well plate with each well of 100 μL, and shaken to make the cells uniformly disperse into the wells. 100 μL of compound solution with certain concentration gradient was added into each well, and 3 duplicate wells were set for each concentration. The plate was cultured in a CO2 incubator at 37° C. for 72 h. 20 μL of MTT working solution (5 mg/mL) was added into each well, and the plate was placed at 37° C. for 4 h, and centrifuged at 1000 rpm for 5 min by a plate centrifuge. After 180 μL of culture medium was discarded, the plate was added with 150 μL of DMSO, and mixed well with a microplate shaker, the plate bottom was wiped, and optical density (OD) at 550 nm was detected with a microplate reader.

[6] = biological target: T5, TRKA (Homo sapiens, UniProt P04629); assay: HTRF kinase inhibition assay, TRKA; format: biochemical
T5 construct: purchased Bioduro
Method: as §1, §2, §3

[7] = biological target: T6, Ba/F3 LMNA-NTRK1 (Homo sapiens, UniProt P04629); assay: In vitro cell proliferation inhibition (MTT); format: cell-based, murine; conditions: 72 h, read-out: IC50 Ba/F3 LMNA-NTRK1
T6 construct: fused on or other part: P02545 (Prelamin-A/C)
Method: as §4

[8] = biological target: T7, Ba/F3 ETV6-NTRK2 (Homo sapiens, UniProt Q16620); assay: In vitro cell proliferation inhibition (MTT); format: cell-based, murine; conditions: 72 h, read-out: IC50 Ba/F3 ETV6-NTRK2
T7 construct: fused on or other part: P41212 (Transcription factor ETV6)
Method: as §4

[9] = biological target: T8, Ba/F3 LMNA-NTRK1-G595R (Homo sapiens, UniProt P04629, G595R, cells depend on it); assay: In vitro cell proliferation inhibition (MTT); format: cell-based, murine; conditions: 72 h, read-out: IC50 Ba/F3 LMNA-NTRK1-G595R
T8 construct: fused on or other part: P02545 (Prelamin-A/C)
Method: as §4

[10] = biological target: T9, Ba/F3 ETV6-NTRK3-G623R (Homo sapiens, UniProt Q16288, G623R, cells depend on it); assay: In vitro cell proliferation inhibition (MTT); format: cell-based, murine; conditions: 72 h, read-out: IC50 Ba/F3 ETV6-NTRK3-G623R
T9 construct: fused on or other part: P41212 (Transcription factor ETV6)
Method: as §4

[11] = biological target: T10, Ba/F3 LMNA-NTRK1-G667C (Homo sapiens, UniProt P04629, G667C, cells depend on it); assay: In vitro cell proliferation inhibition (MTT); format: cell-based, murine; conditions: 72 h, read-out: IC50 Ba/F3 LMNA-NTRK1-G667C
T10 construct: fused on or other part: P02545 (Prelamin-A/C)
Method: as §4

IC50 [1]: < 0.169 nM
IC50 [2]: 0.383 nM
IC50 [4]: 0.205 nM
GI50 [5]: 0.466 nM
IC50 [6]: 0.236 nM
GI50 [7]: 0.729 nM
GI50 [8]: 1.77 nM
GI50 [9]: 0.166 nM
GI50 [10]: 0.674 nM
GI50 [11]: 2.21 nM
Compound: O=C(Nc1ccc(N2CCN(C(=O)CO)CC2)cc1)c1cnn2ccc(N3C[C@@H](F)C[C@@H]3c3cc(F)ccc3F)nc12 [Compound 4, 5-((2R,4S)-2-(2,5-difluorophenyl)-4-fluoropyrrolidin-1-yl)-N-(4-(4-(2-hydroxyacetyl)piperazin-1-yl)phenyl)pyrazolo[1,5-a]pyrimidine-3-carboxamide]
phosphorylation of p-PLCγ1/PLCγ1 and p-AKT/AKT in tumor tissues [3]: effectively inhibit
protein level of TRK and p-TRK in tumor tissues [3]: significantly reduce
